# Numbers after ± are expanded uncertainties.
# Experiment: molar heat capacity at constant pressure
# Settings: 101.33 kPa, Metastable crystal, Small (less than 1 g) adiabatic calorimetry
smiles,measurement,setting,value
CCCCn1cc[n+](C)c1.F[P-](F)(F)(F)(F)F [1-butyl-3-methylimidazolium hexafluorophosphate],molar heat capacity at constant pressure,52.88 K,103.3 ± 0.6 J/K/mol
same,molar heat capacity at constant pressure,54.84 K,105.6 ± 0.6 J/K/mol
same,molar heat capacity at constant pressure,55.01 K,106.3 ± 0.6 J/K/mol
same,molar heat capacity at constant pressure,56.97 K,108.5 ± 0.6 J/K/mol
same,molar heat capacity at constant pressure,57.15 K,109.3 ± 0.6 J/K/mol
same,molar heat capacity at constant pressure,59.11 K,111.3 ± 0.6 J/K/mol
same,molar heat capacity at constant pressure,59.29 K,112.2 ± 0.7 J/K/mol
same,molar heat capacity at constant pressure,61.24 K,114 ± 0.7 J/K/mol
same,molar heat capacity at constant pressure,61.43 K,115 ± 0.7 J/K/mol
same,molar heat capacity at constant pressure,63.37 K,116.6 ± 0.7 J/K/mol
same,molar heat capacity at constant pressure,63.57 K,117.8 ± 0.7 J/K/mol
same,molar heat capacity at constant pressure,65.51 K,119.2 ± 0.7 J/K/mol
same,molar heat capacity at constant pressure,65.71 K,120.5 ± 0.7 J/K/mol
same,molar heat capacity at constant pressure,67.65 K,121.8 ± 0.7 J/K/mol
same,molar heat capacity at constant pressure,67.86 K,123.3 ± 0.7 J/K/mol
same,molar heat capacity at constant pressure,69.79 K,124.4 ± 0.7 J/K/mol
same,molar heat capacity at constant pressure,70.01 K,126 ± 0.7 J/K/mol
same,molar heat capacity at constant pressure,72.04 K,127 ± 0.7 J/K/mol
same,molar heat capacity at constant pressure,72.26 K,128.8 ± 0.7 J/K/mol
same,molar heat capacity at constant pressure,74.39 K,129.8 ± 0.7 J/K/mol
same,molar heat capacity at constant pressure,74.61 K,131.7 ± 0.8 J/K/mol
same,molar heat capacity at constant pressure,76.74 K,132.5 ± 0.8 J/K/mol
same,molar heat capacity at constant pressure,76.97 K,134.6 ± 0.8 J/K/mol
same,molar heat capacity at constant pressure,78.34 K,134.5 ± 0.8 J/K/mol
same,molar heat capacity at constant pressure,78.72 K,137.3 ± 0.8 J/K/mol
same,molar heat capacity at constant pressure,79.09 K,135.1 ± 0.8 J/K/mol
same,molar heat capacity at constant pressure,79.34 K,137.4 ± 0.8 J/K/mol
same,molar heat capacity at constant pressure,80.13 K,136.3 ± 0.8 J/K/mol
same,molar heat capacity at constant pressure,80.5 K,139.2 ± 0.8 J/K/mol
same,molar heat capacity at constant pressure,81.45 K,137.7 ± 0.8 J/K/mol
same,molar heat capacity at constant pressure,81.7 K,140.2 ± 0.8 J/K/mol
same,molar heat capacity at constant pressure,81.8 K,138.1 ± 0.8 J/K/mol
same,molar heat capacity at constant pressure,82.15 K,141.2 ± 0.8 J/K/mol
same,molar heat capacity at constant pressure,83.48 K,139.8 ± 0.8 J/K/mol
same,molar heat capacity at constant pressure,83.81 K,140.2 ± 0.8 J/K/mol
same,molar heat capacity at constant pressure,83.82 K,143 ± 0.8 J/K/mol
same,molar heat capacity at constant pressure,84.07 K,142.9 ± 0.8 J/K/mol
same,molar heat capacity at constant pressure,85.17 K,141.6 ± 0.8 J/K/mol
same,molar heat capacity at constant pressure,85.49 K,145 ± 0.8 J/K/mol
same,molar heat capacity at constant pressure,86.86 K,143.5 ± 0.8 J/K/mol
same,molar heat capacity at constant pressure,87.17 K,146.9 ± 0.8 J/K/mol
same,molar heat capacity at constant pressure,88.56 K,145.3 ± 0.8 J/K/mol
same,molar heat capacity at constant pressure,88.85 K,148.6 ± 0.8 J/K/mol
same,molar heat capacity at constant pressure,90.27 K,147.2 ± 0.8 J/K/mol
same,molar heat capacity at constant pressure,90.55 K,150.8 ± 0.8 J/K/mol
same,molar heat capacity at constant pressure,91.99 K,149 ± 0.8 J/K/mol
same,molar heat capacity at constant pressure,92.25 K,152.7 ± 0.8 J/K/mol
same,molar heat capacity at constant pressure,93.71 K,150.9 ± 0.8 J/K/mol
same,molar heat capacity at constant pressure,93.96 K,154.7 ± 0.8 J/K/mol
same,molar heat capacity at constant pressure,95.45 K,152.7 ± 0.8 J/K/mol
same,molar heat capacity at constant pressure,95.67 K,156.7 ± 0.9 J/K/mol
same,molar heat capacity at constant pressure,97.19 K,154.7 ± 0.8 J/K/mol
same,molar heat capacity at constant pressure,97.39 K,159.1 ± 0.9 J/K/mol
same,molar heat capacity at constant pressure,98.94 K,156.5 ± 0.9 J/K/mol
same,molar heat capacity at constant pressure,99.12 K,160.7 ± 0.9 J/K/mol
same,molar heat capacity at constant pressure,100.69 K,158.4 ± 0.9 J/K/mol
same,molar heat capacity at constant pressure,100.85 K,162.3 ± 0.9 J/K/mol
same,molar heat capacity at constant pressure,102.5 K,160.3 ± 0.9 J/K/mol
same,molar heat capacity at constant pressure,102.65 K,164.4 ± 0.9 J/K/mol
same,molar heat capacity at constant pressure,104.38 K,162.4 ± 0.9 J/K/mol
same,molar heat capacity at constant pressure,104.51 K,166.4 ± 0.9 J/K/mol
same,molar heat capacity at constant pressure,106.27 K,164.4 ± 0.9 J/K/mol
same,molar heat capacity at constant pressure,106.38 K,168.5 ± 0.9 J/K/mol
same,molar heat capacity at constant pressure,108.17 K,166.5 ± 0.9 J/K/mol
same,molar heat capacity at constant pressure,108.26 K,170.5 ± 0.9 J/K/mol
same,molar heat capacity at constant pressure,110.06 K,168.6 ± 0.9 J/K/mol
same,molar heat capacity at constant pressure,110.13 K,172.5 ± 0.9 J/K/mol
same,molar heat capacity at constant pressure,111.96 K,170.7 ± 0.9 J/K/mol
same,molar heat capacity at constant pressure,112.01 K,174.6 ± 0.9 J/K/mol
same,molar heat capacity at constant pressure,113.86 K,172.8 ± 0.9 J/K/mol
same,molar heat capacity at constant pressure,113.9 K,176.6 ± 1 J/K/mol
same,molar heat capacity at constant pressure,115.77 K,174.9 ± 0.9 J/K/mol
same,molar heat capacity at constant pressure,115.78 K,178.7 ± 1 J/K/mol
same,molar heat capacity at constant pressure,117.67 K,180.7 ± 1 J/K/mol
same,molar heat capacity at constant pressure,117.68 K,177.1 ± 1 J/K/mol
same,molar heat capacity at constant pressure,119.56 K,182.8 ± 1 J/K/mol
same,molar heat capacity at constant pressure,119.59 K,179.2 ± 1 J/K/mol
same,molar heat capacity at constant pressure,121.46 K,184.9 ± 1 J/K/mol
same,molar heat capacity at constant pressure,121.5 K,181.4 ± 1 J/K/mol
same,molar heat capacity at constant pressure,123.35 K,186.9 ± 1 J/K/mol
same,molar heat capacity at constant pressure,123.41 K,183.7 ± 1 J/K/mol
same,molar heat capacity at constant pressure,125.25 K,189.1 ± 1 J/K/mol
